Where “and” joins values, the source holds several entries; their conditions need not be identical. Equal values may be shown once.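 Five compound concentrations were applied to cells in 96-well plates for 48 hours; endpoints were derived by simple linear interpolation of the resulting dose-response curve. GI50 marks 50% less growth. At the TGI there is no net growth.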
Columns and labels:
Experiment in all cases: DTP human tumour cell line panel, 48 h
HCT-116 colon = tested on: HCT-116 colon
EKVX NSCLC = tested on: EKVX NSCLC
UO-31 renal = tested on: UO-31 renal
SK-MEL-2 melanoma = tested on: SK-MEL-2 melanoma
SK-MEL-5 melanoma = tested on: SK-MEL-5 melanoma
HCT-15 colon = tested on: HCT-15 colon
PC-3 prostate = tested on: PC-3 prostate
SNB-75 CNS = tested on: SNB-75 CNS
UACC-257 melanoma = tested on: UACC-257 melanoma
SR leukemia = tested on: SR leukemia

Row | SMILES | GI50 (HCT-116 colon) | TGI (HCT-116 colon) | TGI (EKVX NSCLC) [µM] | GI50 (UO-31 renal) | TGI (UO-31 renal) | TGI (SK-MEL-2 melanoma) [µM] | GI50 (SK-MEL-5 melanoma) | TGI (SK-MEL-5 melanoma) | GI50 (HCT-15 colon) | TGI (HCT-15 colon) [µM] | GI50 (PC-3 prostate) | GI50 (SNB-75 CNS) | GI50 (UACC-257 melanoma) | TGI (UACC-257 melanoma) [µM] | GI50 (SR leukemia) | TGI (SR leukemia) | GI50 (EKVX NSCLC) [µM] | GI50 (SK-MEL-2 melanoma) [µM] | TGI (PC-3 prostate) [µM] | TGI (SNB-75 CNS) [µM]
1 | Cc1c(N)nc(C(CC(N)=O)NCC(N)C(N)=O)nc1C(=O)NC(C(=O)NC(C)C(O)C(C)C(=O)NC(C(=O)NCCc1nc(-c2nc(C(=O)NCCCNCCCCN)cs2)cs1)C(C)O)C(OC1OC(CO)C(O)C(O)C1OC1OC(CO)C(O)C(OC(N)=O)C1O)c1cnc[nH]1 (stereo unspecified) | 0.288 µg/mL and 1.04 µg/mL | 26.8 µg/mL and > 10 µM | > 10 | 2.07 µg/mL and 0.691 µg/mL | 5.71 µg/mL and > 10 µM | > 10 | 1.05 µg/mL and 0.164 µg/mL | 15.9 µg/mL and > 10 µM | 1.92 µg/mL | > 10 | 15.3 µg/mL | 8.83 µg/mL and 3.08 µg/mL | 86.1 µg/mL | > 10 | 0.0139 µg/mL | 0.287 µg/mL | – | – | – | –
2 | N#Cc1ncc(N2C(=O)C3(CCC3)N(c3ccc(OC4CCNCC4)nc3)C2=S)cc1C(F)(F)F | 11.7 µM | 24.4 µM | 46.4 | 11 µM | 23.3 µM | 30.5 | 17.2 µM | 32 µM | 13.1 µM | 27.8 | 13.9 µM | 15.4 µM | 12.1 µM | 25.8 | 3.37 µM | 21.1 µM | 18 | 15.1 | 28.9 | 50.1
3 | Cc1nn2c(/C=C3\C(=O)Nc4ccccc43)c(C)nc2s1 | 15.7 µM | > 100 µM | > 100 | 70 µM | > 100 µM | > 100 | 16.5 µM | > 100 µM | 17.1 µM | > 100 | 29.5 µM | 53.7 µM | > 100 µM | > 100 | 4.86 µM | > 100 µM | 74.1 | 27.6 | > 100 | > 100
4 | CC(C)(O)CCC(O)C(C)(O)C1CCC2(O)C3=CC(=O)C4(O)CC(O)C(O)CC4(C)C3CCC12C (stereo unspecified) (tested in a mixture with another compound) | – | > 100 µM | > 100 | – | > 100 µM | > 100 | – | > 100 µM | – | > 100 | – | – | – | > 100 | – | > 100 µM | – | – | > 100 | > 100
5 | COc1cccc2ccc3c(c12)C(=O)OC31CCc2c(C)cccc21 (stereo unspecified) | – | > 31.6 µM | > 46.4 | – | 26.3 µM | > 46.4 | – | 19.5 µM | – | > 46.4 | – | – | – | > 100 | – | 18.4 µM | – | – | > 100 | 45.1
6 | COc1ccc(S(=O)(=O)n2c3ccccc3n3ncc(-c4nnc(C)o4)c23)cc1 | 0.387 µM | 24 µM | > 100 | 0.474 µM | 21.7 µM | 82.1 | 0.401 µM | 15 µM | 0.424 µM | > 75.8 | 0.478 µM | 0.211 µM | 22.4 µM | > 87 | 0.77 µM | > 100 µM | 1.12 | 0.815 | > 100 | 0.937
